Test system: α‐Syn droplets
Experiment: fluorescence microscopy, partitioning of LL-III in α-Syn droplets
Assay type: binding, human
Conditions: 100 μM α-Syn, pH 5.0, 25 °C
Procedure: Figure 1 A) Phase‐contrast light microscopy snapshots of 100 μM and 200 μM α‐Syn solutions collected 2, 4, 7, 9 and 16 days after incubation of the monomeric α‐Syn. B) Phase‐contrast light microscopy snapshots of a solution of 100 μM α‐Syn in the presence of the reported concentration of antimicrobial peptide LL‐III. Each sample was prepared by mixing the monomeric form of α‐Syn with LL‐III. The pictures were taken after 9 and 16 days of incubation. For the snapshots after 16 days, at each peptide concentration, two different regions of the cover slip were sampled, showing the presence of discrete droplets as well as droplet clusters in solution. C) Phase‐contrast light and fluorescence microscopy snapshots of a 100 μM α‐Syn solution in the presence of 50 μM LL‐III (total peptide concentration, the concentration of the carboxyfluorescein‐labelled peptide was 1 μM). All the experiments were performed at room temperature (25 °C) in 20 mM sodium acetate buffer, pH 5.0. […]
To reveal if the short antimicrobial peptide LL‐III is able to affect the fibril formation of α‐Syn, we performed a series of microscopy experiments by using 100 μM of α‐Syn and varying the concentration of LL‐III between 50 μM and 500 μM. […] To confirm partitioning of the LL‐III peptide in the α‐Syn droplets, complementary fluorescence microscopy experiments were performed using a carboxyfluorescein‐labelled LL‐III peptide. […]

NH2-VNWKKIL GKIIKVVK -CONH2 [LL‐III]
partitioning in α-Syn droplets (50 μM LL-III of which 1 μM carboxyfluorescein-labelled, 20 mM sodium acetate, excitation 488 nm): most of the LL‐III peptide was localized in the α‐Syn droplets
droplet clusters after 16 days (16 days): formation of LL‐III‐enriched droplet clusters were observed after 16 days

Reference: article PMC8457056, “Remodeling of the Fibrillation Pathway of α‐Synuclein by Interaction with Antimicrobial Peptide LL‐III” (Chemistry (Weinheim an Der Bergstrasse, Germany), 2021)
